Source: patent publication US20230038360A1, “COMPOSITION FOR THE TREATMENT OF AMYLOID-BETA ASSOCIATED DISEASES” (BASF SE, priority 2019, published 2023)

Tested on: C. elegans strain CL4176 expressing amyloid-beta peptide in muscle cells
Assay: Paralysis assay in transgenic C. elegans strain CL4176 expressing human Aβ1-42 peptide in muscle cells
Assay type: in vivo
Settings: 1 mg/ml sodium propionate in nematode growth medium; after 24 hours; Aβ1-42 expression induced by temperature control
From the text: The biological model C. elegans was used to study the effects of sodium propionate on amyloid-beta associated pathology. C. elegans has become an excellent and well recognized model for studying neurodegenerative diseases (Zhou et al., 2011; Hekimi et al., 2011; Kaletsky & Murphy, 2010). This nematode contains 302 neuron cells with neurotransmitters and neuropeptides similar to the mammalian nervous system. All the basic functions in the worm such as development, feeding and movement are controlled by the nervous system. The model is particularly useful for studying amyloid-beta associated pathologies, since transgenic strains have been generated able to express the human Aβ1-42 peptide in muscle cells, producing a progressive paralysis in the nematodes as a result of toxic effects (Link, 1995). Therefore, this model using such strains is useful to study substances in view of their ability to reduce β-amyloid peptide cell toxicity.
In the present experiment, the transgenic C. elegans strain CL4176 expressing amyloid-beta peptide in muscle cells was used. The worms were cultured in plates with nematode growth medium (control) or in plates supplemented with different concentrations of sodium propionate (test substance). The expression of Aβ1-42 peptide was induced in the nematodes by temperature control, and the percentage of worms paralyzed was determined at different time points. […]

## CCC(=O)[O-].[Na+] [sodium propionate]
  number of paralyzed C. elegans compared to the untreated Aβ1-42 peptide expressing C. elegans: significantly lower
